# Data: patent US20260217732A1, “WRN INHIBITOR” (SUZHOU PUHE BIOPHARMA CO., LTD., priority 2022, published 2026)
# Target: T1, WRN enzyme (Homo sapiens, UniProt Q14191)
# T1 construct: 10 μL (2×) of WRN enzyme solution was added
# Test: WRN helicase hydrolysis (unwinding) of double-stranded DNA, fluorescence assay
# Type: biochemical
# Conditions: 30 min pre-incubation, 60 min reaction
# Experimental: • The molecules of the present disclosure were tested for their activities on the WRN helicase hydrolysis of double-stranded DNA (Table 1).
# A working solution to be tested and a buffer were prepared. The compound to be tested was dissolved in DMSO and subjected to 4× dilution (with 10 μM final concentration as the starting concentration). 0.2 μL of the solution of the compound to be tested was added to the 384-well plate and 10 μL (2×) of WRN enzyme solution was added. The solution was incubated in the dark for 30 minutes. Then, 10 μL of a substrate detection solution containing double-stranded DNA was added to initiate the reaction (the DNA has a length of 19 bp, and labeled with TAMRA and BHQ2 at 3′ and 5′-ends, respectively). The solution was incubated at room temperature for 60 minutes. The inhibitory activities (IC50) against WRN enzyme were calculated based on the change of Ex530/Em590 in the blank group (DMSO) and the compound group.
# T1 sequence (Q14191 whole entry): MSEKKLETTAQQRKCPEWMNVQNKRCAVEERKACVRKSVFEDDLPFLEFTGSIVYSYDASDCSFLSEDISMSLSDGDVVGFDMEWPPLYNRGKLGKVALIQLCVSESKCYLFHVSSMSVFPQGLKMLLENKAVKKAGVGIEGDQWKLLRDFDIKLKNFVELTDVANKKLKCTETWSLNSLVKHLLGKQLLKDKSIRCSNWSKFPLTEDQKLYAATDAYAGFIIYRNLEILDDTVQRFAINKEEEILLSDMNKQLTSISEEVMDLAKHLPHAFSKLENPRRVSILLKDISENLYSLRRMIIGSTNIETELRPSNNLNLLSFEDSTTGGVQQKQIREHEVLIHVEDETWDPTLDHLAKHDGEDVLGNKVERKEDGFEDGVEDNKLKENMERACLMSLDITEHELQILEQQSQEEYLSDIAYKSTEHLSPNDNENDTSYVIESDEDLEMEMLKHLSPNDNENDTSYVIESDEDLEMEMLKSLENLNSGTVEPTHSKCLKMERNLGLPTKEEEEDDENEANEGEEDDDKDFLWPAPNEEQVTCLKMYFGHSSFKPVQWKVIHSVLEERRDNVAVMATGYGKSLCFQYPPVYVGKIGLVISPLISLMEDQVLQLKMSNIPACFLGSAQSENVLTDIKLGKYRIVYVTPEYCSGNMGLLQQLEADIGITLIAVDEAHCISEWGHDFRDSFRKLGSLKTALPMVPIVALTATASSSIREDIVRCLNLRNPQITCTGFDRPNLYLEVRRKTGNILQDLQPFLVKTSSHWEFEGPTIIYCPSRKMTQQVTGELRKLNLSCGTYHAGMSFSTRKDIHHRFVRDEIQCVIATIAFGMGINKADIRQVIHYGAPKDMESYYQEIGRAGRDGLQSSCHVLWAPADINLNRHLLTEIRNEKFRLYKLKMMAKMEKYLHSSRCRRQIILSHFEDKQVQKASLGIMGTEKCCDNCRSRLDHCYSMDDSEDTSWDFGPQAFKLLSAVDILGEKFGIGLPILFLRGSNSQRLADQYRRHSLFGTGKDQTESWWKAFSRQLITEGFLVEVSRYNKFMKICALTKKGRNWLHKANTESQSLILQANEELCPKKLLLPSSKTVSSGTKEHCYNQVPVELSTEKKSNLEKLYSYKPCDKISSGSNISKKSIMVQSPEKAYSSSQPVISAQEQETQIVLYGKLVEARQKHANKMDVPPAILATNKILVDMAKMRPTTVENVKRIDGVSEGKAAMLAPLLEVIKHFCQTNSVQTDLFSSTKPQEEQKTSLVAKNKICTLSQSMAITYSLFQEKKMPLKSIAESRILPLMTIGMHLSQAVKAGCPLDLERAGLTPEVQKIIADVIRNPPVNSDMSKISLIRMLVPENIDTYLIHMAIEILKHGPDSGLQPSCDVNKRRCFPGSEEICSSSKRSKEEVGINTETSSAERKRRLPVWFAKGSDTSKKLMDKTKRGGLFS
row,IC50 [nM],SMILES
1,2.3,CCc1c(N2CC[C@@H](NC(=O)c3ncnc(C)c3O)C2)c(=O)n2nc(C3=CCOCC3)nc2n1CC(=O)Nc1ccc(C(F)(F)F)cc1Cl [P2]
2,1.6,CCc1c(N2CCN(C(=O)c3ncccc3O)CC2)c(=O)n2nc(-c3cncs3)nc2n1CC(=O)Nc1ccc(C(F)(F)F)cc1Cl [P5]
3,3.7,CCc1c(N2CCN(C(=O)c3ncccc3O)CC2)c(=O)n2nc(-c3sccc3N)nc2n1CC(=O)Nc1ccc(C(F)(F)F)cc1Cl [P8]
4,2.1,CCc1c(N2CCN(C(=O)c3ncccc3O)CC2)c(=O)n2nc(-c3ccc(COC)s3)nc2n1CC(=O)Nc1ccc(C(F)(F)F)cc1Cl [P10]
5,1.7,CCc1c(N2CCN(C(=O)c3ncccc3O)CC2)c(=O)n2nc(-c3cnc(CO)s3)nc2n1CC(=O)Nc1ccc(C(F)(F)F)cc1Cl [P11]
6,9.4,CCc1c(N2CCN(C(=O)c3ncccc3O)CC2)c(=O)n2nc(-c3cnc(C(C)=O)s3)nc2n1CC(=O)Nc1ccc(C(F)(F)F)cc1Cl [P12]
7,2.2,CCc1c(N2CCN(C(=O)c3ncccc3O)CC2)c(=O)n2nc(-c3cc4cn[nH]c4s3)nc2n1CC(=O)Nc1ccc(C(F)(F)F)cc1Cl [P13]
8,4.4,CCc1c(N2CCN(C(=O)c3ncccc3O)CC2)c(=O)n2nc(-c3[nH]nc4sccc34)nc2n1CC(=O)Nc1ccc(C(F)(F)F)cc1Cl [P14]
9,1.6,CCc1c(N2CCN(C(=O)c3ncccc3O)CC2)c(=O)n2nc(-c3ccc(C(C)=O)s3)nc2n1CC(=O)Nc1ccc(C(F)(F)F)cc1Cl [P15]
10,2.1,CCc1c(N2CCN(C(=O)c3ncccc3O)CC2)c(=O)n2nc(-c3cc4cnn(C)c4s3)nc2n1CC(=O)Nc1ccc(C(F)(F)F)cc1Cl [P16]
11,2.3,CCc1c(N2CCN(C(=O)c3ncccc3O)CC2)c(=O)n2nc(-c3cc4ccncc4s3)nc2n1CC(=O)Nc1ccc(C(F)(F)F)cc1Cl [P17]
12,1.8,CCc1c(N2CCN(C(=O)c3ncccc3O)CC2)c(=O)n2nc(-c3cc4cnccc4s3)nc2n1CC(=O)Nc1ccc(C(F)(F)F)cc1Cl [P18]
13,1.6,CCc1c(N2CCN(C(=O)c3ncccc3O)CC2)c(=O)n2nc(-c3cc4c(s3)COC4)nc2n1CC(=O)Nc1ccc(C(F)(F)F)cc1Cl [P20]
14,3.3,CCc1c(N2CCN(C(=O)c3ncccc3O)CC2)c(=O)n2nc(-c3ccc4c(c3)OCO4)nc2n1CC(=O)Nc1ccc(C(F)(F)F)cc1Cl [P21]
15,1.7,CCc1c(N2CCN(C(=O)c3ncnc(C)c3O)CC2)c(=O)n2nc(-c3cc4c(s3)COC4)nc2n1CC(=O)Nc1ccc(Br)cc1C [P25]
16,1.5,CCc1c(N2CCN(C(=O)c3ncnc(C)c3O)CC2)c(=O)n2nc(-c3cc4c(s3)COC4)nc2n1CC(=O)Nc1ccc(C(F)(F)F)cc1F [P32]
17,1.8,CCc1c(N2CCN(C(=O)c3ncccc3O)CC2)c(=O)n2nc(-c3cnc(COC)s3)nc2n1CC(=O)Nc1ccc(C(F)(F)F)cc1Cl [P33]
18,2.9,CCc1c(N2CCN(C(=O)c3ncccc3O)CC2)c(=O)n2nc(-c3cc4c(s3)COC4)nc2n1CC(=O)Nc1ccc(C(F)(F)F)c2ccsc12 [P58]

# System: SW48 colorectal cancer cells
# Test: 2D antiproliferation on MSI-H SW48 cells, CTG, 5 days
# Type: cell-based
# Conditions: Homo sapiens, 120 h; SW48 MSI-H, 5 days
# Experimental: The molecules of the present disclosure were tested for their anti-proliferative activity on MSI-H tumor cells.
# SW48 colorectal cancer cells with MSI were cultured in a RMI1640 medium containing 10% FBS and 1% penicillin-streptomycin, and the mixture was cultured in a 37° C., 5% CO2 incubator. 40 μL of cell suspension was added to each well of a 384-well microplate. […] of compounds with different concentrations were added to each well using Echo, and the mixtures were cultured in a 37° C., 5% CO2 incubator for 5 days. 40 μL of CTG solution (Promega, Cat No. G7573) was added to each well and incubated in a 37° C., 5% CO2 incubator in the dark for 30 minutes. The luminescence value was read using an Envision multi-function microplate reader (Perkin Elmer, catalog number Envision 2104). The optical signal is proportional to the amount of ATP in the system, while the ATP content directly characterizes the number of viable cells in the system.
row,IC50 [nM],SMILES
1,1110,CCc1c(N2CC[C@@H](NC(=O)c3ncnc(C)c3O)C2)c(=O)n2nc(C3=CCOCC3)nc2n1CC(=O)Nc1ccc(C(F)(F)F)cc1Cl [P2]
2,566,CCc1c(N2CCN(C(=O)c3ncccc3O)CC2)c(=O)n2nc(-c3sccc3N)nc2n1CC(=O)Nc1ccc(C(F)(F)F)cc1Cl [P8]
3,125,CCc1c(N2CCN(C(=O)c3ncccc3O)CC2)c(=O)n2nc(-c3ccc(COC)s3)nc2n1CC(=O)Nc1ccc(C(F)(F)F)cc1Cl [P10]
4,127,CCc1c(N2CCN(C(=O)c3ncccc3O)CC2)c(=O)n2nc(-c3cnc(CO)s3)nc2n1CC(=O)Nc1ccc(C(F)(F)F)cc1Cl [P11]
5,450,CCc1c(N2CCN(C(=O)c3ncccc3O)CC2)c(=O)n2nc(-c3cnc(C(C)=O)s3)nc2n1CC(=O)Nc1ccc(C(F)(F)F)cc1Cl [P12]
6,72,CCc1c(N2CCN(C(=O)c3ncccc3O)CC2)c(=O)n2nc(-c3cc4cn[nH]c4s3)nc2n1CC(=O)Nc1ccc(C(F)(F)F)cc1Cl [P13]
7,97,CCc1c(N2CCN(C(=O)c3ncccc3O)CC2)c(=O)n2nc(-c3[nH]nc4sccc34)nc2n1CC(=O)Nc1ccc(C(F)(F)F)cc1Cl [P14]
8,381,CCc1c(N2CCN(C(=O)c3ncccc3O)CC2)c(=O)n2nc(-c3ccc(C(C)=O)s3)nc2n1CC(=O)Nc1ccc(C(F)(F)F)cc1Cl [P15]
9,120,CCc1c(N2CCN(C(=O)c3ncccc3O)CC2)c(=O)n2nc(-c3cc4cnn(C)c4s3)nc2n1CC(=O)Nc1ccc(C(F)(F)F)cc1Cl [P16]
10,360,CCc1c(N2CCN(C(=O)c3ncccc3O)CC2)c(=O)n2nc(-c3cc4ccncc4s3)nc2n1CC(=O)Nc1ccc(C(F)(F)F)cc1Cl [P17]
11,499,CCc1c(N2CCN(C(=O)c3ncccc3O)CC2)c(=O)n2nc(-c3cc4cnccc4s3)nc2n1CC(=O)Nc1ccc(C(F)(F)F)cc1Cl [P18]
12,126,CCc1c(N2CCN(C(=O)c3ncccc3O)CC2)c(=O)n2nc(-c3cc4c(s3)COC4)nc2n1CC(=O)Nc1ccc(C(F)(F)F)cc1Cl [P20]
13,480,CCc1c(N2CCN(C(=O)c3ncccc3O)CC2)c(=O)n2nc(-c3ccc4c(c3)OCO4)nc2n1CC(=O)Nc1ccc(C(F)(F)F)cc1Cl [P21]
14,39,CCc1c(N2CCN(C(=O)c3ncnc(C)c3O)CC2)c(=O)n2nc(-c3cc4c(s3)COC4)nc2n1CC(=O)Nc1ccc(Br)cc1C [P25]
15,126,CCc1c(N2CCN(C(=O)c3ncnc(C)c3O)CC2)c(=O)n2nc(-c3cc4c(s3)COC4)nc2n1CC(=O)Nc1ccc(C(F)(F)F)cc1F [P32]
16,139,CCc1c(N2CCN(C(=O)c3ncccc3O)CC2)c(=O)n2nc(-c3cnc(COC)s3)nc2n1CC(=O)Nc1ccc(C(F)(F)F)cc1Cl [P33]
17,480,CCc1c(N2CCN(C(=O)c3ncnc(C)c3O)CC2)c(=O)n2nc(-c3ccc4nccn4c3)nc2n1CC(=O)Nc1ccc(C(F)(F)F)cc1C [P47]
18,162,CCc1c(N2CCN(C(=O)c3ncnc(C)c3O)CC2)c(=O)n2nc(-c3cc4cn[nH]c4s3)nc2n1CC(=O)Nc1ccc(C(F)(F)F)cc1C [P50]
19,55,CCc1c(N2CCN(C(=O)c3ncnc(C)c3O)[C@H](C)C2)c(=O)n2nc(-c3cc4c(s3)COC4)nc2n1CC(=O)Nc1ccc(C(F)(F)F)cc1C [P53]
20,123,CCc1c(N2CCN(C(=O)c3ncccc3O)CC2)c(=O)n2nc(-c3cc4c(s3)COC4)nc2n1CC(=O)Nc1ccc(C(F)(F)F)c2ccsc12 [P58]

# System: HT-29 colorectal cancer cells
# Test: 2D antiproliferation on MSS HT-29 cells, CTG, 5 days
# Type: cell-based
# Conditions: Homo sapiens, 120 h, HT-29 MSS
# Experimental: The molecules of the invention were tested for their anti-proliferative activities on MSS tumor cells.
# HT-29 colorectal cancer cells with MSS were cultured in a McCoy's 5A medium containing 10% FBS and 1% penicillin-streptomycin in a 37° C., 5% CO2 constant temperature incubator. 40 μL of cell suspension was added to each well of a 384-well microplate. […] of compounds with different concentrations were added to each well using Echo. The mixtures were cultured in a 37° C., 5% CO2 constant temperature incubator for 5 days. 40 μL of CTG solution (Promega, Cat No. G7573) was added to each well, and the mixture was incubated in a 37° C., 5% CO2 constant temperature incubator for 30 minutes in the dark. The luminescence value was read using an Envision multi-function microplate reader (Perkin Elmer, catalog number Envision 2104). The optical signal is proportional to the amount of ATP in the system, while the ATP content directly characterizes the number of viable cells in the system.
row,IC50 [nM],SMILES
1,> 10000,CCc1c(N2CCN(C(=O)c3ncccc3O)CC2)c(=O)n2nc(-c3cncs3)nc2n1CC(=O)Nc1ccc(C(F)(F)F)cc1Cl [P5]
2,> 10000,CCc1c(N2CCN(C(=O)c3ncccc3O)CC2)c(=O)n2nc(-c3ccc(COC)s3)nc2n1CC(=O)Nc1ccc(C(F)(F)F)cc1Cl [P10]
3,> 10000,CCc1c(N2CCN(C(=O)c3ncccc3O)CC2)c(=O)n2nc(-c3cnc(CO)s3)nc2n1CC(=O)Nc1ccc(C(F)(F)F)cc1Cl [P11]
4,> 10000,CCc1c(N2CCN(C(=O)c3ncccc3O)CC2)c(=O)n2nc(-c3cnc(C(C)=O)s3)nc2n1CC(=O)Nc1ccc(C(F)(F)F)cc1Cl [P12]
5,9110,CCc1c(N2CCN(C(=O)c3ncccc3O)CC2)c(=O)n2nc(-c3cc4cn[nH]c4s3)nc2n1CC(=O)Nc1ccc(C(F)(F)F)cc1Cl [P13]
6,> 10000,CCc1c(N2CCN(C(=O)c3ncccc3O)CC2)c(=O)n2nc(-c3[nH]nc4sccc34)nc2n1CC(=O)Nc1ccc(C(F)(F)F)cc1Cl [P14]
7,> 10000,CCc1c(N2CCN(C(=O)c3ncccc3O)CC2)c(=O)n2nc(-c3ccc(C(C)=O)s3)nc2n1CC(=O)Nc1ccc(C(F)(F)F)cc1Cl [P15]
8,> 10000,CCc1c(N2CCN(C(=O)c3ncccc3O)CC2)c(=O)n2nc(-c3cc4cnn(C)c4s3)nc2n1CC(=O)Nc1ccc(C(F)(F)F)cc1Cl [P16]
9,> 10000,CCc1c(N2CCN(C(=O)c3ncccc3O)CC2)c(=O)n2nc(-c3cc4ccncc4s3)nc2n1CC(=O)Nc1ccc(C(F)(F)F)cc1Cl [P17]
10,4870,CCc1c(N2CCN(C(=O)c3ncccc3O)CC2)c(=O)n2nc(-c3cc4cnccc4s3)nc2n1CC(=O)Nc1ccc(C(F)(F)F)cc1Cl [P18]
11,> 10000,CCc1c(N2CCN(C(=O)c3ncccc3O)CC2)c(=O)n2nc(-c3cc4c(s3)COC4)nc2n1CC(=O)Nc1ccc(C(F)(F)F)cc1Cl [P20]
12,> 10000,CCc1c(N2CCN(C(=O)c3ncccc3O)CC2)c(=O)n2nc(-c3ccc4c(c3)OCO4)nc2n1CC(=O)Nc1ccc(C(F)(F)F)cc1Cl [P21]
13,> 10000,CCc1c(N2CCN(C(=O)c3ncnc(C)c3O)CC2)c(=O)n2nc(-c3cc4c(s3)COC4)nc2n1CC(=O)Nc1ccc(Br)cc1C [P25]
14,> 10000,CCc1c(N2CCN(C(=O)c3ncnc(C)c3O)CC2)c(=O)n2nc(-c3cc4c(s3)COC4)nc2n1CC(=O)Nc1ccc(C(F)(F)F)cc1F [P32]
15,> 10000,CCc1c(N2CCN(C(=O)c3ncccc3O)CC2)c(=O)n2nc(-c3cnc(COC)s3)nc2n1CC(=O)Nc1ccc(C(F)(F)F)cc1Cl [P33]
16,> 10000,CCc1c(N2CCN(C(=O)c3ncnc(C)c3O)CC2)c(=O)n2nc(-c3ccc4nccn4c3)nc2n1CC(=O)Nc1ccc(C(F)(F)F)cc1C [P47]
17,> 10000,CCc1c(N2CCN(C(=O)c3ncnc(C)c3O)CC2)c(=O)n2nc(-c3cc4cn[nH]c4s3)nc2n1CC(=O)Nc1ccc(C(F)(F)F)cc1C [P50]
18,> 10000,CCc1c(N2CCN(C(=O)c3ncnc(C)c3O)[C@H](C)C2)c(=O)n2nc(-c3cc4c(s3)COC4)nc2n1CC(=O)Nc1ccc(C(F)(F)F)cc1C [P53]
19,> 10000,CCc1c(N2CCN(C(=O)c3ncccc3O)CC2)c(=O)n2nc(-c3cc4c(s3)COC4)nc2n1CC(=O)Nc1ccc(C(F)(F)F)c2ccsc12 [P58]
